In US20170202847A1, “METHODS FOR THE TREATMENT OF TUMORS” (The University of North Carolina at Chapel Hill, priority 2014, published 2017):
Entries after “also recorded” stand apart in the source; their conditions may differ. Like-named read-outs stand apart in the source and are kept apart here. One block for each molecule: values may come before it.

Experiments:
[1] = Dose-finding and tolerability in mice, drug in chow; format: in vivo; conditions: for MTD: mouse, in vivo
Method: […]. AZD6244 is a MEK inhibitor that was administered in mouse chow at a predicted dose of 37 mg/kg (MTD). UNC2025 was administered in chow at a predicted dose of 120 mg/kg (MTD). […]. AZD6244 is a MEK inhibitor that was dosed in mouse chow at a predicted dose of 37 mg/kg (MTD). UNC2025 was dosed in chow at a predicted dose of 120 mg/kg (MTD).
. Once daily, oral dosing inhibits the growth of Mer-expressing leukemia and NSCLC xenografts. […]. After dose-finding studies in wild-type mice established an MTD, the inhibitor was given at 120 mpk/d in mouse chow. […]. The overall response was 10% (partial responses and stable disease). There were no complete responses. […]. […] See, FIG. 16A and FIG. 16B.

[2] = test system: Colo699 (Mer+, FGFR+) and H226 (Mer+, FGFR+) NSCLC cells; test: Soft agar colony formation of NSCLC cells, Mer TKI and FGFR TKI; format: cell-based; conditions: 14 days
[3] = Pharmacokinetics in mice; conditions: mouse, in vivo
[4] = target: T1, Mer (Homo sapiens, UniProt Q12866); test: Mer autophosphorylation in NSCLC cell lines by immunoblot; format: cell-based; conditions: numerous cell lines
T1 sequence (Q12866 21-999): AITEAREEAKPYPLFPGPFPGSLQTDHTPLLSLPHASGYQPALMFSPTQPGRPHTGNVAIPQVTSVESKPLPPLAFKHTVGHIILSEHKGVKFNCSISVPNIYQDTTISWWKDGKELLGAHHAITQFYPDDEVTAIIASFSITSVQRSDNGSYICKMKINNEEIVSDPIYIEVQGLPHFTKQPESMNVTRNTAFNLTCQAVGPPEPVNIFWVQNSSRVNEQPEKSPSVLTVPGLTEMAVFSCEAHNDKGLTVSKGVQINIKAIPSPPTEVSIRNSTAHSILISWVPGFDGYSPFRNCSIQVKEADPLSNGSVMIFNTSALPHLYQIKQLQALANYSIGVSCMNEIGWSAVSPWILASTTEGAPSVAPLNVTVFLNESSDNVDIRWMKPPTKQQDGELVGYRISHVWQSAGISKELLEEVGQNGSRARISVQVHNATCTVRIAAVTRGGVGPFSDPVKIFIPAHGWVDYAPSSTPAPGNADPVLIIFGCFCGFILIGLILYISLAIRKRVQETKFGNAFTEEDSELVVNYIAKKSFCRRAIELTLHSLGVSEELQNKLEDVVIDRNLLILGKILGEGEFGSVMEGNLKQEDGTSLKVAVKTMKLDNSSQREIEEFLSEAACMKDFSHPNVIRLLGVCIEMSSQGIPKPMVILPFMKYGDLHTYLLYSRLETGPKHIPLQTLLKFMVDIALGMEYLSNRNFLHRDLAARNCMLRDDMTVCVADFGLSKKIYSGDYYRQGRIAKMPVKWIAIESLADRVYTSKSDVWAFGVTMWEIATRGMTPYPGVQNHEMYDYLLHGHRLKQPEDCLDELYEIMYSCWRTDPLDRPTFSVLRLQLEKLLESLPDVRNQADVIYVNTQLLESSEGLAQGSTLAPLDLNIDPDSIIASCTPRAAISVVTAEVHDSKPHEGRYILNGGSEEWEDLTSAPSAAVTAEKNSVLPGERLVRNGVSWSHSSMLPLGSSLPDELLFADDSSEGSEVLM
Method: (§1) The effects of Mer TKI treatment on activation of Mer and related members of the TAM-family of kinases, Axl and Tyro3, and effects on downstream proliferative and pro-survival signaling pathways were analyzed by immunoblot. In addition, Mer TKI-mediated anti-tumor activity was determined in a panel of NSCLC cell lines using soft-agar and clonogenic assays. Cells were stained with YoPro-1-iodide and propidium iodide dyes and induction of apoptosis was determined using flow cytometry. Finally, a subcutaneous murine xenograft model was employed to determine therapeutic effects in vivo.

[5] = test system: ERK, AKT, and STAT6 signaling downstream of MER; conditions: immunoblot
Method: Downstream signaling was evaluated by immunoblotting, and induction of apoptosis was determined by flow cytometry in cells stained with YO-PRO®-1 iodide and propidium iodide.

[6] = test system: B-RAF wildtype (HMCB) and B-RAF mutant (G361) cell lines; test: Colony formation of melanoma cell lines; format: cell-based; conditions: for colony formation: HMCB and G361
Text: (§2) See, FIG. 25A and FIG. 25B.

[7] = test system: B-ALL xenograft
[8] = test system: murine model of breast cancer (C3TAg); test: Murine model of breast cancer (C3TAg); format: in vivo; conditions: 120 mpk/d in chow
[9] = test system: PyVmT mammary gland tumor cells; test: Orthotopic PyVmT mammary gland tumor model in immunocompetent C57Bl/6 mice; format: in vivo
Method: FIG. 10A is an immunoblot showing the presence of Mer TK in J774 murine macrophage and absence in PyVmT murine mammary tumor cells. FIGS. 10B and 10C illustrate the results from an immune-competent orthotopic model of Mer-negative breast cancer. […] FIG. 10B is a graph showing tumor volume (mm^3) verses days post-tumor injection.
FIG. 21A is a timeline illustrating a mouse model using PyVmT cells. […] Mice were dosed from day −2 to day 28. At day zero, 1×10^6 PyVmT cells were implanted into the inguinal mammary fatpad of mice. Tumor volumes were measured at days 16, 19, 21, 23, 26 and 28. Day 28 was the end of the study. FIG. 21B is a graph illustrating tumor volume […] verses days post-tumor injection.
See, FIGS. 10A-10C and FIGS. 21A and 21B.

[10] = test system: TRIA; test: TRIA tumors injected into NSG mice; format: in vivo; conditions: linear regression p<0.001
Method: FIG. 20A is a graph of tumor volume (mm^3) verses days. This is treatment of the intact GEMM. FIG. 20B is a graph illustrating the results from TRIA injected into NSG mice. The mice were then treated with no drug or UNC2025. […] In FIGS. 20A and 20B, both treated slopes were statistically significant compared to untreated slopes using linear regression p<0.001. FIG. 20C; Pten/Braf genetically engineered mice were treated with no drug or UNC2025. The graph illustrates tumor volumes (mm^3) verses days on treatment.

[11] = test system: Colo699 cells; test: Subcutaneous murine xenograft model of NSCLC; format: in vivo
Method: FIG. 18A is a graph illustrating tumor volume verses days treated. Colo699 tumor cells were subcutaneously implanted in mice.
as §1

[12] = test system: RAS-driven, INK4a/Arf null melanoma GEMM (TRIA); test: RAS-driven, INK4a/Arf null melanoma GEMM (TRIA); format: in vivo
Method: FIG. 14 is a waterfall plot showing percent change in tumor volumes verses days of treatment in the TRIA GEM model of melanoma. Mice were treated with UNC2025, AZD6244, Carbo/Taxol or received no treatment.
After dose-finding studies in wild-type mice established an MTD, the inhibitor was given at 120 mpk/d in mouse chow.

[13] = test system: HMCB and G361 melanoma cell lines; test: Apoptosis of melanoma cell lines by flow cytometry (YO-PRO-1 iodide/propidium iodide); format: cell-based
Text: as §2

[14] = test system: MER-expressing ALL cell lines; test: Apoptosis and colony formation in methylcellulose of ALL cell lines; format: cell-based
[15] = test system: SKMEL119 melanoma cells; test: Invasion into collagen matrix; format: cell-based
[16] = mouse, in vivo
[17] = test system: AKT and STAT6 activation; test: AKT and STAT6 activation in AML cell lines; format: cell-based; conditions: short term exposure; cell lines expressing FLT3-ITD or MER
Text: (§3) FLT-3 and MER tyrosine kinases have been previously identified as potential targets in the treatment of acute myeloid leukemia (AML). Expression of FLT-3 internal tandem duplication (ITD) occurs in ˜30-40% of AML patient samples and MER overexpression has been detected in ˜80-100%. In this example, a novel first-in-class small molecule inhibitor that has potent activity against both of these kinases and mediates growth inhibition or apoptosis of cell lines and patient myeloblasts is disclosed. […] See, FIGS. 4A-F.

[18] = test system: FLT3-ITD-positive (Molm-13 and MV4; 11) AML cell lines; test: Apoptosis of FLT3-ITD AML cell lines by flow cytometry; format: cell-based; conditions: vehicle 10±2%, p<0.001
Text: as §3

[19] = test system: MER-positive (Kasumi-1 and U937) AML cell lines; test: Soft agar colony formation of MER-positive AML cell lines; format: cell-based; conditions: vehicle = 100, p<0.01
Text: as §3

[20] = test system: MER-positive (Kasumi-1 and U937) AML cell lines; test: Apoptosis of MER-positive AML cell lines by flow cytometry; format: cell-based; conditions: vehicle 20±10%, p<0.01
Text: as §3

[21] = test system: primary AML patient samples (MER and/or FLT3-ITD positive); test: Primary AML patient samples: phosphorylation, apoptosis, colony formation in methylcellulose; format: cell-based, human
Text: as §3

[22] = compared to vehicle treated tumor-bearing mice

SMILES: Cn1cnc2c(F)c(Nc3ccc(Br)cc3Cl)c(C(=O)NOCCO)cc21 [AZD6244, reference compound]
MTD [1]: 37 mg/kg

SMILES: COc1cc(CCc2cc(NC(=O)c3ccc(N4CC(C)NC(C)C4)cc3)n[nH]2)cc(OC)c1 (stereo not drawn) [AZD-4547, reference compound]
colony formation in soft agar [2]: inhibited

SMILES: CCCCNc1ncc2c(-c3ccc(CN4CCN(C)CC4)cc3)cn([C@H]3CC[C@H](O)CC3)c2n1 [MRX6313]
Mer pharmacodynamics marker (platelet aggregation) ([1]; 120 mpk/d in mouse chow): inhibition of second phase platelet aggregation
weight loss ([1]; 120 mpk/d in mouse chow): did not cause weight loss
MTD ([1]; oral, administered in chow, read-out: MTD, predicted dose in mouse chow): 120 mg/kg
oral bioavailability / pharmacokinetics [3]: orally bioavailable; also recorded: favorable pharmacokinetics
concentrations that blocked Mer autophosphorylation [4]: sub-micromolar
downstream signaling [5]: abrogates signaling downstream of MER
concentration resulting in an almost complete block in colony formation ([6]; B-RAF wild-type and B-RAF mutant cell lines): ≥ 300 nM
colony formation [6]: reduced colony growth
median survival ([7]; days after inoculation with tumor cells, vehicle 27 days, p<0.0001): 70 days
tumor burden ([7]; minimal residual disease model): dose dependent reduction in tumor burden
single agent activity [8]: did not exhibit single agent activity
RNA-sequence data on immune cells ([9]; 3 mg/kg twice daily by oral gavage): increases pro-inflammatory cytokines in CD11b^+ cells and activates CD8^+ T cell effector function
primary tumor growth reduction compared to vehicle ([9]; after four weeks of daily treatment): two-fold
reduction of serum IL-4 level [9, 22]: 30%
reduction of serum IL-10 level [9, 22]: 20%
tumor volumes versus control [10]: significantly reduced
tumor volume [11]: significant decrease in tumor volume
toxicity in the TRIA model ([12]; 120 mpk/d in chow): mild, well tolerated toxicity
complete responses (CRs) ([12]; TRIA, 8 mice): 3
single agent activity ([12]; TRIA, 120 mpk/d in chow): pronounced single agent activity
percent change in tumor volumes, waterfall plot, ranking ([12]; versus AZD6244, Carbo/Taxol, no treatment): best response
apoptosis [13]: induced apoptosis
colony formation in soft agar [2]: inhibited
apoptosis and colony-formation in methylcellulose [14]: induction of apoptosis and reduced colony-formation

oral bioavailability / pharmacokinetics [16]: orally bioavailable
SMILES: CCCCNc1ncc2c(-c3ccc(S(=O)(=O)N4CCOCC4)cc3)nn(C3CCC(O)CC3)c2n1 (stereo not drawn) [UNC1062]
invasion into collagen matrix [15]: reduced invasion
colony formation [6]: reduced colony formation

SMILES: CCCCNc1ncc2c(-c3ccc(S(=O)(=O)N4CCOCC4)cc3)cn(C3CCC(O)CC3)c2n1 (stereo not drawn) [UNC1666]
AKT and STAT6 activation [17]: dose-dependent decrease
apoptotic cells [18]: 90±6%
relative colony counts [19]: 34±15
apoptotic cells [20]: 66±10%
Mer and Flt3 kinase phosphorylation and downstream signaling ([21]; leukemic blasts from a patient with AML, 50, 100 and 300 nM): abrogates
colony formation in methylcellulose ([21]; six primary patient samples): near complete inhibition of colony formation
induction of apoptosis ([21]; six primary patient samples): dose-dependent induction of apoptosis
